The subject of experiment [1] is ovine pituitary cells. Briefly: LH synthesis by ovine pituitary cells in suspension culture. The class given is cell-based. The note with it: cells incubated with treatment for 16 hours; LH synthesis during 24 hour culture after removal. The protocol:
In addition, the conjugation procedure reduces the toxicity of the pokeweed antiviral protein by 99.5 in a cell-free translation system. […] The activity of this conjugate was also tested in a pituitary cell culture system. In this system, pituitary cells were incubated with the sterilization agent conjugated to [D-Lys^6, des-Gly^10]-GnRH-ethylamide for 16 hours. After incubation, the sterilization agents were removed from the incubation media by extensive washing and the cells were then cultured for an additional 24 hours. The increase in total LH, i.e., that present in the media plus that in the cells during the 24 hour period, represents the ability of the treated cells to synthesize LH. […]
The effect of these compounds on ovine pituitary cells in suspension culture was measured. […] After pretreatment, the cells were washed 6 times, counted, and small aliquots removed for testing. […] 3 ml of cold Gel-PBS was added to each tube, cells were centrifuged, and the media was measured for LH content. The four pretreatment groups were evaluated for their ability to synthesize and secrete LH immediately after treatment and after the 24 hour recovery period.

For experiment [2], the system named is ovine pituitary cells. The experiment is described as follows: Total culture LH after exposure to GnRH and toxin conjugates with or without lysosomal agents. The note with it: 24 hour exposure, wash, further 24 hour culture in standard media. Type of experiment: cell-based. How it is done:
Applicants then tested the more promising Barley-2IT-[D-Lys^6, desGly^10]-GnRH-ethylamide conjugate in similar assay systems. […] Ovine pituitary cells were again placed in culture with various agents and the total LH in the cells and media determined after a 24 hour exposure, wash, and further 24 hour culture in standard media.

The test system of experiment [3] is GnRH induced secretion of LH. The experiment is described as follows: GnRH induced secretion of LH in ovariectomized female rats. Type of experiment: in vivo. The note with it: single injection; ovariectomized female rat. How it is done: Applicants also tested these compounds using an in vivo model. The test system initially chosen was the ovariectomized female rat. […] During week 2, release of LH was reduced by 50% in the GnRH-A treated group (controls), but by >90% in the GnRH-A-T group. […] It might however be the basis for a temporary sterilization. Based upon this finding, a second experiment was conducted to examine the effect of 4 injections of a pokeweed antiviral sterilization conjugate at 3-day intervals on the ability of ovariectomized rats to release LH.
Applicants also tested the PAP-carbodiimide-[D-Lys^6, desGly^10]-GnRH-ethylamide conjugate in ovariectomized female rats.
FIG. 1B indicates the results of a challenge by one of applicants' compounds to ovariectomized rats. […] The open space above the bars indicates the amount of LH released in response to a GnRH challenge. The challenges were administered on the first day of treatment and again 4 weeks later.

As to “gonadotropin-releasing hormone (QHWSYGLRPG; Gonadoliberin-1; UniProt P01148 24-33, looked up) [GnRH, native decapeptide hormone]”, the “SYNTHESIS of LH” value with ovine pituitary cells [1] was 545.5 ng per 5 × 10^6 cells.
As to “pyroGlu-His-Trp-Ser-Tyr-D-Lys-Leu-Arg-Pro-ethylamide [[D-Lys^6, des-Gly^10]-GnRH-ethylamide]”, in the experiment on ovine pituitary cells [2], the “Total LH” value came out at 1.62 Ng/10^5 cells in Culture. Further, the “reduction of release of LH, week 2” value in experiment [3] stood at 50%.
